Experimental data published in US8338482B2, “Modulating notch1 signaling pathway for treating neuroendocrine tumors” (Wisconsin Alumni Research Foundation, priority 2007, dated 2012).

Key:
[1] = test system: Hedgehog pathway; conditions: murine models; cited from earlier work
[2] = test system: Hedgehog signaling; conditions: 50 mg/kg/d i.p.
From the text: Sixty nude mice undergo intrasplenic injection of NE tumor cells as described above. […] Treatment continues for 8 weeks.
2) Interval assessment of tumor burden. All animals undergo microCT scanning every week for 8 weeks as described above. Blood is sampled weekly for measurement of serotonin or calcitonin levels.
3) Measurement of Hedgehog signaling inhibition. […] The liver lesions from animals sacrificed at 2 weeks intervals (n=3 per group) are microdissected from normal liver and total RNA extracted. Tumors in cycloamine treated mice are analyzed for downregulation of Gli1 expression by real-time PCR when compared to control animals.

CC1=C2C[C@H]3[C@@H](CC=C4C[C@@H](O)CC[C@@]43C)[C@@H]2CC[C@]12O[C@@H]1C[C@H](C)CN[C@H]1[C@H]2C [Cyclopamine]
Hedgehog signaling [1]: completely blocked | tumors dependent on Hedgehog signaling [1]: caused regression | Hedgehog signaling within the NE tumor cells [2]: confirmed to inhibit
